The values that follow are results of earlier work, collected in patent EP3272348A1, “PHARMACEUTICAL COMPOSITION COMPRISING IDELALISIB” (LEK Pharmaceuticals d.d., priority 2016, dated 2018).

Like-named read-outs stand apart in the source and are kept apart here.

Assay in data set [1]: not given
This is another data set of the same source.

As to `CC[C@H](Nc1ncnc2[nH]cnc12)c1nc2cccc(F)c2c(=O)n1-c1ccccc1` [Crystalline idelalisib, (S)-2-(I-(9H-purin-6-ylamino)propyl)-5-fluoro-3-phenyl-quinazolin-4(3H)-one], the solubility result (pH 1.2) is given as “soluble” and the solubility entry (pH 7) is recorded as “not soluble”. Moreover, in data set [1], the permeability entry is “high permeability”.
